Reference: US20200281243A1, “DIETARY PRODUCT” (CANCER RESEARCH TECHNOLOGY LTD, priority 2017, published 2020)

Legend:
EMT-up genes = assay: RNAseq of EMT-up genes; format: cell-based, mouse; conditions: parental 4T1 cells grown in asparagine supplemented media
4T1 cells [1] = assay: CellTrace Violet proliferation assay, parental 4T1 cells; format: cell-based, mouse; conditions: asparagine supplementation, 24 hours
Description: (§1) For the mCherry competition assay, shRNA-transduced mCherry-positive cells were admixed with untransduced cells. mCherry fluorescence was quantified on the LSR II flow cytometer (BD Biosciences). The proliferation assay was carried out using the CellTrace Violet Cell Proliferation Kit (Thermo Fisher Scientific). For FIG. 3b and FIG. 9e, 4T1 and MDA-MB-231 cells were cultured in media containing 100× concentration of the specified amino acid (relative to the concentration in 1×NEAA) for 2 days or 3 days, respectively, before starting the proliferation assay. Cells were stained with CellTrace violet and then trypsinized and re-suspended in media. After 24 hours, cells were collected in order to quantify violet fluorescence intensity using the SH800 flow cytometer (Sony).

[2] = tested on: Asns-silenced 4T1-T cells; assay: Matrigel invasion assay, Asns-silenced cells; format: cell-based, mouse; conditions: media supplemented with asparagine
Description: (§2) The in vitro invasive capacity of cells was measured using 6-well BioCoat Matrigel invasion plates. For parental 4T1 cells, 1×10^6 cells were plated on individual wells, for 4T1-T cells, 8×10^5 cells were plated on individual wells and for MDA-MB-231 cells, 5×10^5 cells were used per individual well. Cells were resuspended in media without serum and cells invaded into media with 5% fetal bovine serum and 5% fetal calf serum. For FIG. 3b and FIG. 9e, 4T1 and MDA-MB-231 cells were cultured in media containing 100× concentration of the specified amino acid (relative to the concentration in 1×NEAA) for 2 days or 3 days, respectively, before starting the invasion assay. After 24 h, non-invaded cells were removed and the invasion wells were washed in PBS, fixed in 2% glutalaldehyde for 2 min and stained with 0.5% crystal violet for 10 min. The wells were washed in distilled H2O, air-dried and scanned using the Odyssey infrared scanner. The signal was quantified using ImageJ (NIH).

4T1 cells [3] = assay: Matrigel invasion assay, parental 4T1 cells; format: cell-based, mouse; conditions: media supplemented with asparagine (100× of 1×NEAA, 2 days), 24 h matrigel invasion
Description: as §2

[4] = tested on: Asns-silenced 4T1-T cells; assay: mCherry competition assay, Asns-silenced cells; format: cell-based, mouse; conditions: media supplemented with asparagine
Description: as §1

MDA-MB-231 cells = assay: CellTrace Violet proliferation assay, MDA-MB-231 cells; format: cell-based, human; conditions: asparagine supplementation, 24 hours
Description: as §1

EMT-up proteins = assay: iTRAQ proteomic profiling of EMT-up proteins; format: cell-based, mouse; conditions: parental 4T1 cells; media supplemented with asparagine
Source text: Cells were washed in ice cold PBS and harvested for iTRAQ quantitative proteomics as previously described in Ross et al. 2004. Three replicates were utilized for each cell line.

parental 4T1 cells = assay: Orthotopic injection of parental 4T1 cells into NSG mice; format: in vivo, mouse; conditions: parental 4T1 orthotopic, 60U L-asparaginase 5 times per week for 19 days vs PBS
Description: (§3) All mouse experiments were approved by the Cold Spring Harbor Animal Care and Use Committee. The maximal permitted tumour size of 20 mm in any direction was never exceeded. All mouse injections were carried out with 6-8-week-old female NOD-SCID-112rg^−/− (NSG) mice (JAX). Balb/c mice were not used in this study as the different clonal cell lines have variable GFP levels due to the lentiviral barcode vector. Tail vein injections were carried out using 5×10^5 mouse mammary tumor cells, which were re-suspended in 100 ul of PBS and injected via tail vein. Orthotopic injections were performed using 1×10^5 mouse mammary tumor cells or 5×10^5 MDA-MB-231 cells. For this, cells were re-suspended in a 1:1 mix of PBS and growth factor reduced Matrigel (BD Biosciences). A volume of 20 ul was injected into the mammary gland #4 for mouse mammary tumor cells and a volume of 40 ul was injected for MDA-MB-231 cells. Primary tumor volume was measured using the formula V=½(L×W^2), where L is length and W is width of the primary tumor. For L-asparaginase studies, mice were administered 200 ul of 60U of L asparaginase 5× per week through intraperitoneal injections. […]
(§4) For each lung, five-micron sections were prepared and stained with a standard H&E protocol. Lung metastatic burden was determined by counting individual lung nodules on one section.

4T1-T cells = assay: Orthotopic injection of Asns-silenced or -expressing 4T1-T cells into NSG mice; format: in vivo, mouse; conditions: Asns-silenced 4T1 cells orthotopic; L-asparaginase treated mice
Description: as §3, §4

Twist1 and E-cadherin = assay: IHC staining for Twist1 and E-cadherin in primary tumours; format: in vivo, mouse; conditions: primary tumours of mice treated with L-asparaginase
Description: as §3, with “A volume of 20 ul was injected into the mammary gland #4 for mouse mammary tumor cells and a volume of 40 ul was injected for MDA-MB-231 cells.” left out, “tumor.” for “tumor. For L-asparaginase studies, mice were administered 200 ul of 60U of L asparaginase 5× per week through intraperitoneal injections.”
For immunohistochemistry, primary tumors and lungs were processed as previously described in Wagenblast et al. 2015. […] Ecadherin and Twist1 diaminobenzidine-stained (DAB) and hematoxylin stainings were quantified using ImageJ (NIH). For this, images were color deconvoluted according to Ruifrok et al. 2001 and the percent area of E-cadherin and Twist1 positive staining was measured.

solid tumours = conditions: Tallal et al. 1970; cited from earlier work
[5] = Free amino acid quantification in blood serum using HPLC; format: in vivo, mouse; conditions: NSG mice; 60U L-asparaginase 5 times per week for 19 days
Description: as §3, with “tumor.” for “tumor. For L-asparaginase studies, mice were administered 200 ul of 60U of L asparaginase 5× per week through intraperitoneal injections.”
Free amino acids were quantified in cultured cells and blood serum. […] Each sample was quantified in triplicates using High Performance Liquid Chromatography (HPLC) and a flourometric detector. For each replicate, nanomoles of each amino acid was measured. […]

[6] = Metabolite profiling of mammary gland, serum and lungs by LC-MS/MS; format: in vivo, mouse; conditions: L-asparaginase treated animals
Description: as §3, with “tumor.” for “tumor. For L-asparaginase studies, mice were administered 200 ul of 60U of L asparaginase 5× per week through intraperitoneal injections.”
Dried-down extracts were re-suspended in 25 ul HPLC-grade water, and 1 ul was analyzed using hydrophilic interaction chromatography (HILIC) coupled to tandem mass spectrometry analysis (LC-MS/MS). […] Metabolite differences were analyzed by normalizing samples to total peak area and comparing replicates for each group using one-way ANOVA with multiple comparisons.

Compound | mRNA levels of EMT-up genes (EMT-up genes) | growth (4T1 cells [1]) | capacity to invade [2] | increase in invasiveness (4T1 cells [3]) | capacity to grow [4] | growth (MDA-MB-231 cells) | expression of EMT-up proteins (EMT-up proteins) | primary tumour volumes (parental 4T1 cells) | metastatic burden (parental 4T1 cells; lung) | primary tumour volume (4T1-T cells) | resultant metastases (4T1-T cells) | Twist1 and E-cadherin expression (IHC) (Twist1 and E-cadherin) | treating solid tumours (solid tumours) | serum asparagine (HPLC) [5] | asparagine in the serum (mass spectrometry) [6]
NC(=O)C[C@H](N)C(=O)O [asparagine] | increased | not impacted | increased | approximately 2 fold | increased | not impacted | increased in expression | – | – | – | – | – | – | – | –
L-asparaginase | – | – | – | – | – | – | – | no significant difference | significant reduction | reduction | nearly undetectable | significant expression change | ineffective | undetectable | nearly undetectable
